# From publication PMC5279725 (PLoS ONE, 2017)
# What was measured:
# MPO in CF sputum sol [1] = assay: PIC1 dose-response on MPO activity (TMB) in CF sputum sol #2m; format: biochemical
# Procedure: (§1) To measure MPO peroxidase activity using TMB, 20 μl of assay supernatant, CF sol, or neutrophil lysate was serially diluted and then combined with 100 μl of TMB in a non-treated 96-well plate followed by 100 μl of 2.5 N H2SO4 (stop buffer) and absorbance was read at 450 nm. For MPO functional assays using ABTS, 150 μl of ABTS solution was added to each sample and incubated for 5 minutes before adding 100 μl of 1% SDS to stop the reaction. Absorbance was read at 405 nm. O-dianisidine working solution was prepared by making a 0.166 mg/ml solution in 50 mM phosphate-citrate buffer, pH 5.0 with a final of 0.006% H2O2 added immediately before use. For MPO measurements, 100 μl of the prepared O-dianisidine solution was added to each sample and incubated for 2 minutes before adding 100 μl of 2.5 N H2SO4 to stop the reaction. Absorbance was read at 405 nm.
# complement activation = settings: cited from earlier work
# Excerpt: DMSO as a diluent decreas ...
# MPO in CF sputum sols = assay: MPO peroxidase activity (TMB) in 14 clinical CF sputum sols; format: biochemical
# Procedure: Expectorated sputum samples were collected in sterile containers and immediately placed on ice. The soluble fraction (sol) was extracted as a supernatant of free flowing liquid after cold (4°C) centrifugation at 14,000 g for 60 minutes, similar to previously described methods. Due to the normal differences in CF sputum viscosity, sol fractions were not normalized for protein content consistent with previously described methods.
# as §1
# MPO heme ring [2] = assay: Spectral analysis of MPO heme ring with bleach (NaOCl); settings: 2 μM MPO, 2.5 mM PIC1, bleach 1:1000, n = 2
# Procedure: (§2) As each component is added to the MPO it is allowed to incubate for 5 minutes. […] Absorbance values were recorded from 300–550 nm.
# MPO heme ring [3] = assay: Spectral analysis of MPO heme ring with H2O2; settings: 2.5 mM PIC1, 200 μM H2O2
# Procedure: as §2
# C1q = settings: cited from earlier work
# [4] = cited from earlier work
# Excerpt: Evidence from previous investigators implicate MPO as a major contributor to CF lung damage, which is consistent with MPO being the most prevalent peroxidase in neutrophils and the clear role of neutrophils mediating lung destruction in CF.
# [5] = Reversal/inhibition of TMB oxidation, PIC1 added before TMB or after TMB incubated with MPO; format: biochemical; settings: PIC1 added after MPO and TMB had incubated
# Procedure: We then tested whether PIC1 could reverse the oxidized state of TMB after incubation with MPO.
# purified MPO [6] = assay: Purified MPO oxidation of TMB; format: biochemical
# Procedure: (§3) MPO peroxidase activity utilizing pure MPO was assayed by combing the MPO solution, diluted to 160 nM with PBS buffer, with an inhibitor, at denoted concentrations, in a 1:1 ratio (v/v) for 1 min. prior to adding TMB.
# as §1
# purified MPO [7] = assay: Dose-response inhibition of pure MPO at various MPO concentrations; format: biochemical
# Procedure: as §1
# MPO = assay: Ferrozine assay of Fe release from MPO in the presence of bleach; settings: 2 μM MPO, 2.5 mM PIC1, bleach 1:1000; 562 nm
# Procedure: Iron release from MPO was measured utilizing a ferrozine assay. After the absorbance spectra was recorded, 100 μl of ascorbic acid (100 mM) was added to each sample and allowed to incubate for 5 minutes. Then 50 μl of ammonium acetate (16%) and 50 μl of ferrozine (16 mM) were added to the samples and mixed. After incubating for 5 minutes, absorbance was measured at 562 nm. A standard curve was prepared using ammonium Fe(III) sulfate and a linear regression was used to calculate the free iron concentration.
# MPO in CF sputum sol [8] = assay: MPO peroxidase activity (TMB) in CF sputum sol ± neutrophils (PMN), heat-killed P. aeruginosa or heat-aggregated IgG; format: biochemical; settings: CF sol only, + killed P. aeruginosa, + Agg IgG
# Procedure: To these samples were added 1×10^6 neutrophils for 1 hour at 37°C. These samples were then analyzed for MPO peroxidase activity by TMB assay, described below.
# as §1
# purified MPO [9] = assay: Purified MPO oxidation of O-dianisidine; format: biochemical; settings: PIC1 0.5–0.9 mM
# Procedure: as §3, §1
# MPO in CF sol = assay: pH effect on MPO peroxidase activity (TMB) in CF sol; format: biochemical; settings: PIC1 7.5 mM (pH 4.7) vs sol acidified to pH 4.0
# Procedure: Assays of pH effect on MPO peroxidase activity in CF sols was performed by adjusting one representative CF sol, initially at a pH of 7.0, to pH values of 6.0, 5.0, and 4.0 using H2SO4. […] TMB was added after 5 minutes.
# as §1
# MPO in neutrophil lysate = assay: MPO peroxidase activity (TMB) in neutrophil lysate; format: biochemical; settings: 0.9 mM PIC1 vs no PIC1, n = 4, P < 0.001
# Procedure: Neutrophils from the blood of healthy volunteers were purified from heparinized blood by Hypaque-Ficoll step gradient centrifugation, dextran sedimentation, and hypotonic lysis, as previously described. Neutrophils were adjusted to 1×10^7 cells/ml for the functional studies. Neutrophils were sedimented, lysed in 1% Triton X-100, and 1×10^6 cell/ml equivalent aliquots were used for neutrophil lysate assays.
# as §3
# as §1, with “For MPO measurements, 100 μl of the prepared O-dianisidine solution was added to each sample and incubated for 2 minutes before adding 100 μl of 2.5 N H2SO4 to stop the reaction.” left out
# [10] = Anti-oxidant assay: TMB oxidized by solid-phase MPO, transferred to uncoated well; format: biochemical; settings: absorbance 450 nm, n = 4, P = 0.02
# Procedure: Pure MPO was coated onto an Immunlon-2 96 well plate at 24 μg/ml in carbonate buffer overnight at 4°C. The plate was washed to remove unbound protein with PBS and 0.05% Tween, and then 100 μl of TMB was added. […] After 1 minute, 100 μl of 2.5 N H2SO4 was added to stop the reaction and absorbance was read at 450 nm.
# purified MPO [11] = assay: Purified MPO oxidation of ABTS; format: biochemical; settings: PIC1 0.5–0.9 mM
# Procedure: as §3, §1
substance,measurement,setting,value
IALILEPICCQERAA-dPEG24 [PIC1],reduction in MPO activity,"MPO in CF sputum sol [1]; 7.5 mM PIC1 vs no PIC1, n = 3, P = 0.001",11.5 fold
same,inhibition of MPO activity,MPO in CF sputum sol [1]; PIC1 titration,dose-dependent inhibition of MPO activity
same,P. aeruginosa-initiated complement activation,complement activation; CF sputum sols,can inhibit P. aeruginosa-initiated complement activation
same,C5a generation,complement activation; CF sputum soluble fraction,can inhibit P. aeruginosa-mediated generation of the pro-inflammatory anaphylatoxin C5a
same,median MPO activity after PIC1,"MPO in CF sputum sols; 7.5 mM PIC1, 14 CF sputum samples, as number of neutrophils lysed to yield equivalent TMB oxidation, baseline median 94.0, P = 0.02",27.9
same,decrease in median MPO activity,"MPO in CF sputum sols; 7.5 mM PIC1, 14 CF sputum samples, vs baseline, P = 0.02",3.4 fold
same,change in MPO activity,"MPO in CF sputum sols; 7.5 mM PIC1, each of 14 samples",decrease in MPO activity
same,MPO-postPIC1 median,"MPO in CF sputum sols; PIC1 7.5 mM, 14 samples, MPO-pre median 93.975",27.935 x 10E6
same,MPO-postPIC1,"MPO in CF sputum sols; PIC1 7.5 mM, sample 1e, MPO-pre 117.41",30.1 x 10E6
same,MPO-postPIC1,"MPO in CF sputum sols; PIC1 7.5 mM, sample 2j, MPO-pre 17.29",0 x 10E6
same,MPO-postPIC1,"MPO in CF sputum sols; PIC1 7.5 mM, sample 2m, MPO-pre 158.85",43.21 x 10E6
same,MPO-postPIC1,"MPO in CF sputum sols; PIC1 7.5 mM, sample 3i, MPO-pre 1117.64",493.15 x 10E6
same,MPO-postPIC1,"MPO in CF sputum sols; PIC1 7.5 mM, sample 4a, MPO-pre 7.9",0 x 10E6
same,MPO-postPIC1,"MPO in CF sputum sols; PIC1 7.5 mM, sample 5e, MPO-pre 305.93",173.21 x 10E6
same,MPO-postPIC1,"MPO in CF sputum sols; PIC1 7.5 mM, sample 10g, MPO-pre 71.54",19.09 x 10E6
same,MPO-postPIC1,"MPO in CF sputum sols; PIC1 7.5 mM, sample 15e, MPO-pre 55.77",12.92 x 10E6
same,MPO-postPIC1,"MPO in CF sputum sols; PIC1 7.5 mM, sample 17c, MPO-pre 77.44",25.77 x 10E6
same,MPO-postPIC1,"MPO in CF sputum sols; PIC1 7.5 mM, sample 28a, MPO-pre 325.09",297.05 x 10E6
same,MPO-postPIC1,"MPO in CF sputum sols; PIC1 7.5 mM, sample 29e, MPO-pre 110.51",43.24 x 10E6
same,MPO-postPIC1,"MPO in CF sputum sols; PIC1 7.5 mM, sample 34j, MPO-pre 68.92",16.55 x 10E6
same,MPO-postPIC1,"MPO in CF sputum sols; PIC1 7.5 mM, sample 1d, MPO-pre 229",214.65 x 10E6
same,MPO-postPIC1,"MPO in CF sputum sols; PIC1 7.5 mM, sample 9d, MPO-pre 34.41",0 x 10E6
same,protection of MPO from bleach,MPO heme ring [2],largely protected from the oxidative effects of bleach
same,heme ring protection,MPO heme ring [3],able to inhibit oxidative damage to the heme ring and alteration of the iron charge state
same,C1 enzymatic activation,C1q,inhibits enzymatic activation
same,C1q binding affinity,C1q; similar to C1r-C1s-C1s-C1r tetramer,nanomolar affinity
same,aqueous solubility,[4],excellent aqueous solubility
same,tolerability in vivo,[4],well tolerated in vivo
same,reversal of TMB oxidation,[5],the color change was reversed and the absorbance value was minimal
same,inhibition of purified MPO oxidation of TMB,"purified MPO [6]; 0.9 mM PIC1, MPO 80 nM, n = 3, P < 0.001",28 fold
same,improvement in MPO inhibition compared with ABAH,"purified MPO [6]; 0.9 mM, TMB, P = 0.002",7 fold
same,inhibition of MPO peroxidase activity,"purified MPO [7]; 0.5 mM PIC1, 20 μM MPO, P < 0.001",5.4 fold
same,inhibition of MPO peroxidase activity,purified MPO [7]; MPO concentrations up to 80 μM,Concentration dependent PIC1 inhibition of MPO peroxidase activity
same,bleach-mediated iron release from MPO,MPO,able to prevent bleach-mediated release of iron from MPO
same,MPO oxidation of TMB,MPO in CF sputum sol [8],dramatically inhibited MPO oxidation of TMB in all conditions
same,inhibition of purified MPO oxidation of O-dianisidine,purified MPO [9],dramatically inhibited
same,role of acidification in MPO inhibition,MPO in CF sol,not mediated by acidification of the sol
same,inhibition of MPO activity,MPO in neutrophil lysate,12.5 fold
same,reduction in oxidized TMB,[10],20 fold
same,inhibition of purified MPO oxidation of ABTS,purified MPO [11],dramatically inhibited
